Source: patent US9187773B2, “Method for improving acid tolerance of Propionibacterium acidipropionici” (Jiangnan University, priority 2012, dated 2015)

Legend:
Assay type in all cases: cell-based, Propionibacterium acidipropionici
P. acidipropionici [1] = assay: Acid tolerance of P. acidipropionici with amino acid addition (growth in seed medium containing PA); settings: for Acid tolerance: seed medium with 2.5-5 g/L PA, 30° C., 40 h; for increase of the acid concentration that P. acidipropionici can tolerate: with addition of the amino acid, versus 2.5 g/L PA without amino acid
Experimental: The present invention provides a method for improving acid tolerance of P. acidipropionici by adding arginine and/or aspartic acid in the culture.
P. acidipropionici was first inoculated with sterile seed medium in anaerobic jars. The anaerobic jars were incubated at 30° C. for 60 h. To determine the effects of adding amino acids on acid tolerance of P. acidipropionici, the culture broth was transferred into anaerobic jars containing fresh seed medium with 2.5-5 g/L PA, 5-30 mM arginine and/or 5-30 mM aspartic acid added. The strains were then incubated at 30° C. for 40 h.
The P. acidipropionici was bought from China General Microbiological Culture Collection, and the strain code is CGMCC 1.2230.
The seed medium: 10 g/L yeast extract, 5 g/L tryptic soy broth, 1.5 g/L KH2PO4, 2.5 g/L K2HPO4, pH 7.0.
(§1) To determine the effects of adding arginine on acid tolerance of P. acidipropionici, the strains were inoculated with an inoculum size of 1% (v/v) into anaerobic jars containing 100 mL sterile seed medium. The anaerobic jars were incubated at 30° C. for 60 hours. And then, the culture broth was transferred into anaerobic jars containing fresh seed medium with 2.5-5 g/L PA and 0-30 mM arginine by an inoculum size of 1% (v/v) and incubated at 30° C. for 40 hours.
as §1, with “of adding aspartic acid on acid” for “of adding arginine on acid”, “jars containing (volume: 100 mL) 100 mL” for “jars containing 100 mL”, “0-30 mM aspartic acid by an” for “0-30 mM arginine by an”

P. acidipropionici [2] = assay: PA production of P. acidipropionici with amino acid addition (fermentation, HPLC analysis); settings: 30° C., 150 h
Experimental: To determine the effects of adding amino acids on PA production of P. acidipropionici, P. acidipropionici was inoculated with sterile seed medium in anaerobic jars. The anaerobic jars were incubated at 30° C. for 60 h. The culture broth was then transferred into anaerobic jars containing fresh culture medium. The PA fermentations with culture medium with or without addition of arginine and aspartic acid. The PA fermentations with culture medium without addition of arginine and aspartic acid were used as control.
The culture medium: 10 g/L yeast extract, 5 g/L tryptone, 1.5 g/L KH2PO4, 2.5 g/L K2HPO4, 25 g/L glycerol, 10 mg/L CoCl2, 30 g/L CaCO3, 5-30 mM arginine and/or 5-30 mM aspartic acid, pH 7.0.
(§2) To determine the effects of adding arginine on PA production of P. acidipropionici, the strains were inoculated with an inoculum size of 1% (v/v) into anaerobic jars containing 100 mL sterile seed medium. And then the seed culture was inoculated with an inoculum size of 10% (v/v) into anaerobic jars (volume: 100 mL) containing 50 mL culture medium into which certain amount of arginine was added. The anaerobic jars were incubated at 30° C. for 150 h.
(§3) Fermentation broth was centrifuged at 8000 rpm for 5 min, and the supernatant liquid was collected for analysis of PA. The supernatant liquid was diluted by 10 times with 3.68 mol/L sulphuric acid and then filtered with 0.22 μm pore size filter. The samples were analyzed by HPLC. As shown in Table 1 and FIG. 2, addition of amino acids increased PA production.
as §2, with “aspartic acid” for “arginine”, “hours.” for “h.”
as §3, with “Table 2” for “Table 1”

P. acidipropionici [3] = assay: as above
[4] = amino acid concentration 10 mM in culture medium
[5] = amino acid concentration 20 mM in culture medium
[6] = amino acid concentration 30 mM in culture medium

Row | SMILES | Acid tolerance (P. acidipropionici [1]; amino acid concentration 10 mM) [g/L] | Acid tolerance (P. acidipropionici [1]; amino acid concentration 20 mM) [g/L] | Acid tolerance (P. acidipropionici [1]; amino acid concentration 30 mM) [g/L] | increase of the acid concentration that P. acidipropionici can tolerate (P. acidipropionici [1]) [%] | PA production (P. acidipropionici [2]; [4]) [g/L] | PA production (P. acidipropionici [2]; [5]) [g/L] | PA production (P. acidipropionici [2]; [6]) [g/L] | PA production (P. acidipropionici [3]; 30 mM added at the logarithmic phase of fermentation) [g/L] | PA production (P. acidipropionici [3]; 30 mM added at the stable phase of fermentation) [g/L] | PA production (P. acidipropionici [3]; 20 mM added at the logarithmic phase of fermentation) [g/L] | PA production (P. acidipropionici [3]; 20 mM added at the stable phase of fermentation) [g/L]
1 | N=C(N)NCCC[C@H](N)C(=O)O [Arginine, arginine] | 3 | 4 | 4 | 60 | 10.66 | 10.60 | 13.99 | 12.60 | 10.65 |  | 
2 | N[C@@H](CC(=O)O)C(=O)O [Aspartic acid, aspartic acid] | 2.5 | 3 | 3 | 20 | 12.54 | 12.97 | 12.87 |  |  | 12.75 | 10.66
